The values below are quoted from earlier work in US9149436B2, “Pharmaceutical product comprising a sequestered agent” (Purdue Pharma L.P., priority 2003, dated 2015).

For the data set the following is noted: after oral doses.

With `O=C1CC[C@@]2(O)[C@H]3Cc4ccc(O)c5c4[C@@]2(CCN3CC2CC2)[C@H]1O5` [naltrexone], the duration of action was about 24 h.
Regarding `C[C@H]1[C@H]2Cc3ccc(O)cc3[C@]1(C)CCN2CC1CC1` [cyclazocine], the duration of action was about 24 h.
